Data on one compound can be found in patent US11413269B2, “Compositions for improved NRF2 activation and methods of their use” (PATHWAYS BIOSCIENCE, LLC, priority 2015, dated 2022).

This assay has as its system Nrf2. Briefly: ARE-driven luciferase promoter/reporter assay in stably transfected cell lines. The assay is classed as cell-based, human. To be noted: low concentrations.

Protocol: Briefly, the stably transfected cells of types HepG2 (human liver), AREc32 (human breast), MCF7 (human breast), A549 (human lung), 293T (human kidney), and A172 (human brain) were seeded at low density in 24-well plates and incubated at 37° C. with 10% CO2. […] After an additional 18 h of incubation, the cells were lysed in their wells with 100 μl of a lysing buffer that contains 3.5 mM sodium pyrophosphate to stabilize light output by luciferase. A 20 μl aliquot of cell lysate was added to a small test tube, placed in a BD Monolight 3010 luminometer for background luminescence, and then 50 μl of 1 mM luciferin was injected into the tube. Relative Light Units integrated for 10 sec were measured for each sample.

For the compound `O=c1cc(-c2ccc(O)c(O)c2)oc2cc(O)cc(O)c12` [Luteolin, luteolin], the “synergy with combinations of Rosemary extracts and Ginger extracts to activate Nrf2” value is listed as “synergized”.
